Assay results from patent US5208344A, “Naphthalenepropionic acid derivatives as anti-inflammatory/antiallergic agents” (American Home Products Corporation, priority 1991, dated 1993).
One block for each compound: values may come before it.

Key:
[1] = system: inflammatory mediator release; assay: reverse passive Arthus pleurisy assay, inflammatory mediator release; format: in vivo, rat; details: for ED50 LTB4: 10 min; for % Inh LTB4: 10 mg/kg p.o.; for ED50: Rattus norvegicus, po, read-out: ED50 TxB2
Protocol: The compounds of the invention are further tested in the reverse passive Arthus pleurisy assay to evaluate their effectiveness in inflammatory mediator release and/or the fluid and cellular phases of an inflammatory response.
A reverse passive Arthus reaction is induced in the pleural cavity of male Lewis rats (150-200 g; fasted overnight prior to use) by the intravenous administration of bovine serum albumin (BSA; 4 mg/0.2 ml) followed 30 minutes later by the injection of rabbit anti-BSA (1 mg/0.2 ml; lyophilized IgG fraction; Organon Teknika, West Chester, PA) into the right pleural space under halothane anesthesia. […] Animals are sacrificed at either the time of peak eicosanoid production (i.e. 5 minutes after anti-BSA for immunoreactive TxB2, 10 minutes for immunoreactive LTB4, 20 minutes for immunoreactive LTC4) or at the time of peak neutrophil infiltration (4 hours after anti-BSA) by CO2 inhalation. The pleural cavity is then exposed, the fluid exudate removed by gentle vacuum aspiration and the volume of exudate is recorded. For the determination of cellular infiltration, the pleural cavity is rinsed with 3 ml of 0.1% EDTA in sterile saline, and the recovered wash is pooled with the exudate. Cell number is determined on a model ZBI Coulter counter. For determination of eicosanoid production, undiluted pleural exudate is microfuged and the supernatant is extracted with ethanol (8-10 times volume). Extracts are either stored at -20° C., or are evaporated to dryness under a stream of N2 and reconstituted in radioimmunoassay (RIA) buffer.
Eicosanoids are quantitated by RIA according to the procedure specified by the RIA kit manufacturer (Advanced Magnetics, Cambridge, MA). Briefly, 100 μl of ^3 H-labeled eicosanoid and 100 μl of specific antibody are sequentially added to 100 μl of extracted pleural exudate in BGG-phosphate buffer which contains 0.01 M phosphate, 0.1% bovine gamma globulin and 0.1% sodium azide at pH 7.0. Antibody-bound eicosanoid is separated form unbound eicosanoid by the addition of 750 μl of dextran (0.4%)-coated charcoal (0.4% Norit A) containing 0.1% sodium azide. The mixture is centrifuged at 2000 RPM at 5° C. for 15 minutes to pellet the charcoal and adsorbed unbound eicosanoid. Antibody-bound labeled eicosanoid is quantitated by counting in a liquid scintillation counter, and is correlated to concentration by a standard curve.
Inflammatory cells are expressed as 10^6 cells/ml, pleural exudate is expressed as ml of fluid, and the amount of eicosanoids in the pleural cavity is expressed as ng/ml of exudate. Mean±S.E.M. is determined for each group. Percent inhibition (% I) of cell number, exudate volume and eicosanoid production is calculated for vehicle-treated control groups, and the responses in drug-treated rats are then expressed as the mean $ I of control.

5-lipoxygenase [2] = target: T1, 5-lipoxygenase (Rattus norvegicus, UniProt P12527); assay: inhibition of 5-HETE synthesis by rat glycogen elicited polymorphonuclear leukocytes; format: cell-based; details: 10 μM; rat PMN; negative = potentiation of 5-HETE synthesis; read-out: % Inhibition of 5-LO (as 5-HETE)
T1 construct: Peritoneal PMN are obtained from female Wistar rats (150-250 g); endogenous in cells; host or cells: rat glycogen-elicited peritoneal polymorphonuclear leukocytes, intact
T1 sequence (P12527 1-673): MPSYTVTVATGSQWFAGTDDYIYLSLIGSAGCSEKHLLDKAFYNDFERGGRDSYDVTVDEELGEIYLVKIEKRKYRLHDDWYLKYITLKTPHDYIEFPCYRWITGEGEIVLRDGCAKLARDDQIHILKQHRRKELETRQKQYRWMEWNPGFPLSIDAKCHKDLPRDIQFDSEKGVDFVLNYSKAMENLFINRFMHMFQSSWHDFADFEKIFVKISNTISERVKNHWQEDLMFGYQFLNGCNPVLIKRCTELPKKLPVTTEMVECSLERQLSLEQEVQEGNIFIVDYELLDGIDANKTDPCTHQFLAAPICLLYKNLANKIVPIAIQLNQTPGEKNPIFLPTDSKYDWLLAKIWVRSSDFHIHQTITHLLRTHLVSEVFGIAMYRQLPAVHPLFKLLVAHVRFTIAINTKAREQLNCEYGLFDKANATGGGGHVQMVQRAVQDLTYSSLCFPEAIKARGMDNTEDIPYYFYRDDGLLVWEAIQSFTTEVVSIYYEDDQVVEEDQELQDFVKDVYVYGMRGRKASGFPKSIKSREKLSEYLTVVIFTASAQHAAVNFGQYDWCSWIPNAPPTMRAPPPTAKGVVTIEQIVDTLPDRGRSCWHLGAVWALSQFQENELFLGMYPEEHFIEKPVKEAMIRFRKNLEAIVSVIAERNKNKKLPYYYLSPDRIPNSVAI
Protocol: The assay of this Example measures the ability of the compounds of the invention to inhibit the synthesis of 5-HETE by rat glycogen elicited polymorphonuclear leukocytes.
(§1) Peritoneal PMN are obtained from female Wistar rats (150-250 g) that received an i.p. injection of 6% glycogen (10 ml). After 24 hours, rats are killed by CO2 asphysiation and peritoneal cells are harvested by peritoneal lavage using Ca^++ and MG^++ free Hanks' balanced salt solution (HBSS). The peritoneal exudate is centrifuged at 400 g for 10 minutes. After centrifugation, the lavaged fluid is removed and the cell pellet is resuspended in HBSS containing Ca^++ and MG^++ and 10 mM L-cysteine at a concentration of 2×10^7 cells/ml. To 1 ml portions of cell suspension, test drugs or vehicle are added and incubated at 37° C. for 10 minutes. Following this preincubation, the calcium ionophore (10 μM), a23187, is added together with 0.5 μM [14 C] arachidonic acid and further incubated for 10 minutes. The reaction is stopped by the addition of ice cold water (3 ml) and acidifying to pH 3.5. Lipoxygenase products are then extracted twice into diethyl ether. The pooled ether extracts are evaporated to dryness under nitrogen and the residue is redissolved in a small volume of methanol and spotted on aluminum backed pre-coated thin layer chromatographic plates. The samples are then cochromatographed with authentic reference 5-HETE in the solvent system - hexane: ether: acetic acid (50:50:3). After chromatography, the areas associated with 5-HETE standard are identified by autoradiography, cut out and quantitated by liquid scintillation.

cyclooxygenase = assay: inhibition of synthesis of cyclooxygenase products TxB2 and PGE2 (rat polymorphonuclear leukocytes); format: cell-based; details: 10 μM; rat PMN; negative = potentiation of PGE2 synthesis
Protocol: as §1
However, in order to determine cyclooxygenase activity, the samples are cochromatographed with authentic reference TxB2 and PGE2 in the solvent system ethyl acetate: formic acid (80:1) and the upper phase of ethyl acetate: isooctane: acetic acid: water (110:50:20:100). After chromatography, the areas associated with the TxB2 and PGE2 standards are identified by autoradiography, cut out and quantitated by liquid scintillation techniques.

5-lipoxygenase [3] = target: T2, 5-lipoxygenase (Homo sapiens, UniProt P09917); assay: inhibition of 5-lipoxygenase in human whole blood (LTB4); format: cell-based; details: human whole blood
T2 construct: Blood is obtained in 50-100 ml quantities from male donors; endogenous in cells; host or cells: human whole blood (leukocytes) from male donors
T2 sequence (P09917 1-674): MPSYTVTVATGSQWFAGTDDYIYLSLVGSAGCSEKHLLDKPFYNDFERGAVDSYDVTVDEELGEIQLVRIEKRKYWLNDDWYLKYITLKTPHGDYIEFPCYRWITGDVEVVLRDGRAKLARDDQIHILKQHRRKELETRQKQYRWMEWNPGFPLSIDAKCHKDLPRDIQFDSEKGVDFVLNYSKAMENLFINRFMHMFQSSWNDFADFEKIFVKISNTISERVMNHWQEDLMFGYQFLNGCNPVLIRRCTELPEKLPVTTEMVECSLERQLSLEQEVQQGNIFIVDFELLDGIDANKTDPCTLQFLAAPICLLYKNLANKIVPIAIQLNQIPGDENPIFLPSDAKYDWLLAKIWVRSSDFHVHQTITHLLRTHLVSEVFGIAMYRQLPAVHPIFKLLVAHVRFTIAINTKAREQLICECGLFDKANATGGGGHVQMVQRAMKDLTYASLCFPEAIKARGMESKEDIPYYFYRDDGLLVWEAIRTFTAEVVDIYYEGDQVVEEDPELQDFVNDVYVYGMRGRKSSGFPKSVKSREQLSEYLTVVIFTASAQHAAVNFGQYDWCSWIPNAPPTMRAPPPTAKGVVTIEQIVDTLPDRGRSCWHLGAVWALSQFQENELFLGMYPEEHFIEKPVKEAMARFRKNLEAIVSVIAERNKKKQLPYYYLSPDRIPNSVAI
Protocol: The assay of this Example measures the ability of the compounds tested to inhibit 5-lipxygenase in human whole blood.
Blood is obtained in 50-100 ml quantities from male donors. White blood cell counts and differentials are made. Two ml of blood are placed in a 15 ml polypropylene test tube. Compounds are solubilized in dimethylsulfoxide and diluted 1:10 in 10% bovine serum albumin in phosphate buffered saline, pH 7.4 resulting in a final dimethylsulfoxide concentration of 0.1% in the blood. Then, compounds are added to the blood in a shaking water bath at 37° C. for 10 minutes prior to the addition of 30 μM calcium ionophore (A23187; Sigma). After ionophore administration, whole blood samples are mixed and incubated for 20 minutes at 37° C. in a shaking water bath. Incubation is terminated by placing samples in an ice bath and immediately adding ethylene glycol-bis-(β-aminoethyl ether)-N,N,N',N'-tetraacetic acid (10 mM). Samples are mixed and centrifuged at 1200×g for 15 minutes at 4° C. Preparation of samples for evaluation by RIA or ELISA is carried out by the following protocol. Plasma is removed from sample tubes, placed in 15 ml polypropylene test tubes containing 8 ml methanol, and then vortexed to precipitate protein. Samples are stored at -70° C. overnight. The next day, samples are centrifuged at 200×g for 15 minutes at 4° C. to pellet the precipitate. Samples are dried in a Savant speed vac concentrator, reconstituted to original volume with ice cold RIA or ELISA buffer, and stored at -70° C. until assayed. The assay for eicosanoids (LTB4, TxB2, and PGE2) is performed as described by the manufacturer of the [^3 H]-RIA kit or ELISA kit (LTB4 -Amersham, TxB2 and PGE2 - Caymen Chemical).
The total eicosanoid level in 2 ml of blood is calculated and reported as ng/10^6 neutrophils. Significance is determined by a one-way analysis of variance with least significant difference (LSD) comparisons to control (p≤0.05) and IC50 's (μM) are determined by regression analysis (Finney, 1978). Drug effects are expressed as percent change form control values.
Compounds tested in vitro are solubilized in dimethylsulfoxide and diluted 1:10 in 10% bovine serum albumin in phosphate buffer saline resulting in a final dimethylsulfoxide concentration of 0.1% in the blood.

[4] = p.o., 1 hour prior to anti-BSA, rat

Structure (SMILES): C[C@H](C(=O)O)c1ccc2cc(OCc3ccc4ccccc4n3)ccc2c1.NC(CO)(CO)CO [Wy-50,295-A]
% Inh TxB2 ([1]; 75 mg/kg p.o., rat): 0% | ED50 LTB4 [1, 4]: 15 mg/kg

Structure (SMILES): CN=C1CCN(c2cccc(C(F)(F)F)c2)N1 [BW540C]
ED50 TxB2 ([1]; p.o., 1 hour prior to anti-BSA, rat, 5 min): 19 mg/kg | ED50 LTB4 [1, 4]: 30 mg/kg

Structure (SMILES): O=C(O)Cc1ccccc1Nc1c(Cl)cccc1Cl [Diclofenac]
% Inh LTB4 ([1]; rat): 0% | ED50 ([1]; 5 min): 6 mg/kg

Structure (SMILES): CC(C(=O)N(C)O)c1ccc2cc(OCc3ccc4ccccc4n3)ccc2c1 (stereo not drawn) [Example 23, N-Hydroxy-α-N-dimethyl-6-(2-quinolinylmethoxy)-2-naphthaleneacetamidedihydrate]
inhibition at 10 µM (5-lipoxygenase [2]): 75% | % Inhibition of CO (as PGE2) (cyclooxygenase): 17% | inhibition at 5 µM (5-lipoxygenase [3]; 5 μM, read-out: % Inhibition of LTB4): 45%

Structure (SMILES): CC(C(=O)O)c1cccc(C(=O)c2ccccc2)c1 (centres unmarked) [Ketoprofen]
% Inh LTB4 ([1]; rat): 35% | ED50 ([1]; 5 min): 0.18 mg/kg

The next lines start with results.

inhibition at 10 µM (5-lipoxygenase [2]): 92% | inhibition at 50 µM (5-lipoxygenase [3]): 13%
Structure (SMILES): CONC(=O)C(C)c1ccc2cc(OCc3ccc4ccccc4n3)ccc2c1 (stereo not drawn) [Example 30, N-methoxy-α-methyl-6-(2-quinolinylmethoxy)-2-naphthaleneacetamide]
% Inhibition of CO (as PGE2) (cyclooxygenase): -27%

inhibition at 10 µM (5-lipoxygenase [2]): 91% | inhibition at 50 µM (5-lipoxygenase [3]): 24%
Structure (SMILES): COC(=O)[C@@H](C)c1ccc2cc(OCc3ccc4ccccc4n3)ccc2c1 [Example 29, (S)α-methyl-6-(2-quinolinylmethoxy)-2-naphthaleneacetic acid methyl ester]
% Inhibition of CO (as PGE2) (cyclooxygenase): -17%

inhibition at 10 µM (5-lipoxygenase [2]): 100% | inhibition at 25 µM (5-lipoxygenase [3]; 25 μM): 45%
Structure (SMILES): Cc1ccc(S(=O)(=O)NC(=O)C(C)c2ccc3cc(OCc4ccc5ccccc5n4)ccc3c2)cc1 (stereo not drawn) [Example 25, α-Methyl-N-[(4-methylphenyl)sulfonyl]-6-(2-quinolinylmethoxy)-2-naphthaleneacetamide]
% Inhibition of CO (as PGE2) (cyclooxygenase): -103%

inhibition at 10 µM (5-lipoxygenase [2]): 97% | inhibition at 100 µM (5-lipoxygenase [3]; 100 μM): 8%
Structure (SMILES): C[C@H](CO)c1ccc2cc(OCc3ccc4ccccc4n3)ccc2c1 [Example 26, (S)-β-methyl-6-(2-quinolinylmethoxy)-2-naphthalene ethanol]
% Inhibition of CO (as PGE2) (cyclooxygenase): 5%
